Data: patent US12097171B2, “Petrolatum-based PHMB compositions and methods of treatment for onychomycosis” (GLOBAL HEALTH SOLUTIONS LLC, priority 2015, dated 2024)
“And” between values parts separate entries of the source, which are not always exact repeats. Equal values may be shown once.

What was measured:
[1] = test system: skin of female albino New Zealand White rabbits; assay: Rabbit skin irritation; conditions: per rabbit, 24, 48 and 72 hour observations, two test sites, sulfate
Description: Within 24 hours to 4 hours before test application, the backs of female albino New Zealand White rabbits were clipped free of hair, exposing 2 test and 2 control areas on each side of the spine with a size of approximately 15 cm×15 cm. The two test sites are located on the left cranial section and the right caudal section of the dorsal region. The two control sites are located on the left caudal and right cranial section of the dorsal region. FIG. 4 depicts the arrangement of test and control sites. The exposed skin is wiped with alcohol and dried. Rabbits of acceptable skin quality were selected and used for testing.
A 25×25 mm gauze patch saturated with 0.5 mL of 0.9% NaCl is used for the control and applied to the clipped control sites. The patches are secured using hypoallergenic, waterproof, surgical tape over the test and control sites. The animal's trunk is securely wrapped so as to maintain the position of the patches. Patches are left applied for a minimum of four hours.
After patch removal, the test and control sites were then scored for erythema and edema at 1, 24, 48 and 72 hours after patch removal. Only the 24, 48, and 72 hour observations were scored and used for calculations. If no response was expected, testing was conducted using three animals per test article. If irritation was anticipated, one animal was tested initially. If the first animal received a score of 2 or less for either erythema or edema, 2 additional rabbits were used to conclude the test.
This total was divided by the total number of observations. The same was done for the control sites. […] These scores for each animal were added and divided by the total number of animals to give the Primary Irritation Index. […] For any response, the Maximum Irritation Response, the time of onset of the response and the time of maximum response was recorded.
To positively validate the test, 10% sodium dodecyl sulfate (SDS), which is a known dermal irritant, in petroleum jelly was applied to a 2.5 cm×2.5 cm gauze patch. As a negative control, 0.5 mL of 0.9% NaCl was applied to a 2.5 cm×2.5 cm gauze patch. […]

[2] = test system: human subjects having onychomycosis; conditions: comparison value for standard of care; cited from earlier work

Row | SMILES | ED (edema) score total ([1]; patch at least four hours) | ER (erythema) score total ([1]; patch at least four hours) | ER + ED = Total [1] | effectiveness of standard of care treatments [2] [%]
1 | CCCCCCCCCCCCOS(=O)(=O)[O-].[Na+] [10% SDS, sodium dodecyl sulfate] | 19 and 21 and 14 | 21 and 23 and 18 | 40 and 44 and 32 | 
2 | CN(C/C=C/C#CC(C)(C)C)Cc1cccc2ccccc12 [Lamisil] |  |  |  | 20
